Test results published in US4537885A, “Certain benzazocinone and benzazoninone derivatives” (Ciba Geigy Corporation, priority 1984, dated 1985).
Counter-ions that a name gives are not always drawn.

Tests used:
[1] = system: angiotensin-converting enzyme; test: in vivo inhibition of the Angiotensin I induced pressor response in anesthetized normotensive rats; conditions: p.o. administration of 3.3 mg/kg (rat), at 1 hr
Method: Angiotensin I is hydrolyzed by the action of said converting enzyme to the potent pressor substance Angiotensin II. The inhibition of said enzyme prevents the generation of Angiotensin II from I and, therefore, attenuates any pressor response following an Angiotensin I challenge.
The corresponding in vivo test is performed with male, normotensive rats, which are anesthetized with sodium 5-ethyl-5-(1-methylpropyl)-2-thiobarbiturate. A femoral artery and saphenous vein are cannulated respectively for direct blood pressure measurement and the i.v. administration of Angiotensin I and a compound of this invention. After the basal blood pressure is stabilized, pressor responses to 3 challenges of 333 ng/kg angiotensin I i.v., at 5 minute intervals, are obtained. Such pressure resonses are usually again obtained at 5, 10, 15, 30 and 60 minutes after i.v. administration or 1, 2, 3 and 4 hours after p.o. administration of the compound to be tested, and compared with the initial responses. Any observed decrease of said pressor response caused by the compounds of the invention is an indication of Angiotensin I converting enzyme inhibition.
Illustrative of the invention, and according to the test methods previously described, the following angiotensin-converting enzyme inhibition data is obtained.

[2] = target: T1, angiotensin-converting enzyme (Oryctolagus cuniculus, UniProt P12822); test: in vitro inhibition of the angiotensin-converting enzyme (hippuryl-histidyl-leucine substrate); assay type: biochemical, rabbit; conditions: in vitro test; enzyme from lungs of adult male rabbits; 37° C., 30 minutes
T1 construct: angiotensin-converting enzyme preparation (from lungs of adult male rabbits); from tissue; host or cells: lungs of adult male rabbits
T1 sequence (P12822 34-1310): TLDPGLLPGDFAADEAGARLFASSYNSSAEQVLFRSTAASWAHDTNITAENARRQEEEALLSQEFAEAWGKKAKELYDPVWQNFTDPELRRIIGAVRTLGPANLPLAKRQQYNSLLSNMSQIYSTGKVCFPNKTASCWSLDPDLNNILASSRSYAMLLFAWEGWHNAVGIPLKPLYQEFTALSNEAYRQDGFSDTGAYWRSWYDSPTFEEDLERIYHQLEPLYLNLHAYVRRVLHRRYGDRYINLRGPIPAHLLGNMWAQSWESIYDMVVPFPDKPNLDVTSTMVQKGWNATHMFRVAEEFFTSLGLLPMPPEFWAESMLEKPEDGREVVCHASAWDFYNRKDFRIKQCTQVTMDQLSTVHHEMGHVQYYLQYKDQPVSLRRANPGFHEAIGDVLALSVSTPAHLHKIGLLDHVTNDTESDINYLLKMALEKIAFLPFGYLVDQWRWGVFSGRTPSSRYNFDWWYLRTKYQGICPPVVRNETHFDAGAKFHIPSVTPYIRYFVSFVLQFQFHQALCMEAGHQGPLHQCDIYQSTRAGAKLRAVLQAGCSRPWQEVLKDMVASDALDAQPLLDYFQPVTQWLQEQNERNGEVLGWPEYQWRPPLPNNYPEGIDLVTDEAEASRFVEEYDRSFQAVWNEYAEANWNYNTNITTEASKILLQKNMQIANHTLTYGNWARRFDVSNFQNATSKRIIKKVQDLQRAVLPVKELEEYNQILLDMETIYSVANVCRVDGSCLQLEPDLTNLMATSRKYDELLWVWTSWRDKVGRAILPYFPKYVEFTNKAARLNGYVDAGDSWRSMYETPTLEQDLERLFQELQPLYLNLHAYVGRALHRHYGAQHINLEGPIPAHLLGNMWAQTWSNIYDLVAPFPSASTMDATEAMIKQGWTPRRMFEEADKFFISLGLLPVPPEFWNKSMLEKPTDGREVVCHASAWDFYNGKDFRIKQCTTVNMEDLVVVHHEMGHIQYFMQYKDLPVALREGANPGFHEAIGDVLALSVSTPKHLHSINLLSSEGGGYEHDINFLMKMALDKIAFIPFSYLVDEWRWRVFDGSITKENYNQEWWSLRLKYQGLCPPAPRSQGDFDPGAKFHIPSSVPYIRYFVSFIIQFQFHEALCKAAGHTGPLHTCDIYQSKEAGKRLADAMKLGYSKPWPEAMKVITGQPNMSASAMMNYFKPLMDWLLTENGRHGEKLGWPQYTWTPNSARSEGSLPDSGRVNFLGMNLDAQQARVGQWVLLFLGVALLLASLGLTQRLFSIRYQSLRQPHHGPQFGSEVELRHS
Method: Biophys. Acta 293, 451 (1973). According to this method, said compounds are dissolved at about 1 mM concentration in phosphate buffer. […] Said solutions are incubated at 37° C. for 30 minutes and combined with 0.75 ml of 0.6N aqueous sodium hydroxide to stop further reaction. Then 100 microliters of a 0.2% solution of o-phthalaldehyde in methanol are added at room temperature, and 10 minutes later 100 microliters of 6N hydrochloric acid. These samples are read against water in a spectrophotometer set at 360 nm, and the optical densities thereof estimated. They are corrected for the standard curve via a conversion factor expressing nanomoles of histidyl-leucine formed during said 30 minute incubation period. The results are plotted against concentration to determine the IC50, i.e., the concentration of the compound which gives half the activity of the control sample. Illustrative of the invention, and according to the test methods previously described, the following angiotensin-converting enzyme inhibition data is obtained.

IC50 [2] [µM]	SMILES	inhibition of Angiotensin I pressor response (in vivo test) [1] [%]
	CCOC(=O)[C@H](CCc1ccccc1)N[C@H]1CCCc2ccccc2N(CC(=O)O)C1=O [example 8a, 1-carboxymethyl-3-(1-ethoxycarbonyl-3-phenyl-(1S)-propylamino-3,4,5,6-tetrahydro-(3S)-1-benzazocin-2-1H-one hydrochloride]	69
0.0075	O=C(O)CN1C(=O)[C@@H](N[C@@H](CCc2ccccc2)C(=O)O)CCCc2ccccc21 [example 7a, 1-carboxymethyl-3-(1-carboxy-3-phenyl-(1S)-propylamino)-3,4,5,6-tetrahydro-(3S)-1-benzazocin-2-1H-one hydrochloride]	
0.027	NCCCC[C@H](N[C@H]1CCCc2ccccc2N(CC(=O)O)C1=O)C(=O)O [S,S compound of example 12, 3-[(5-amino-1-(S)-carboxypentyl)amino]-1-carboxymethyl-3,4,5,6-tetrahydro-(3S)-1-benzazocin-2-1H-one hydrochloride]	
